According to article PMC6107497:

Experiment: Pd(II)-catalysed intramolecular ortho C(sp2)-H olefination (oxidative Heck-type aryl-alkenyl C-C bond) of peptide aryl/benzyl/thienyl sulfonamides with pendant acrylate or unactivated terminal alkene; Pd(OAc)2 10 mol%, AgOAc 2.0 equiv
Details: 1,2-dichloroethane (DCE), 50.0 mM, 80.0 °C, 24.0 h

For `COC(=O)[C@@H]1COC(=O)C=Cc2ccccc2CS(=O)(=O)N[C@@H](C(C)(C)C)C(=O)N1` [PhCH2SO2-tLeu-Ser(O-acryloyl)-OMe], the ring closure, isolated yield (from C=CC(=O)OC[C@H](NC(=O)[C@@H](NS(=O)(=O)Cc1ccccc1)C(C)(C)C)C(=O)OC, 14-membered ring) was 52%.

`COC(=O)[C@@H]1Cc2ccc(cc2)OC(=O)C=Cc2ccccc2CS(=O)(=O)N[C@@H](C(C)(C)C)C(=O)NCC(=O)N2CCC[C@H]2C(=O)N1` [PhCH2SO2-tLeu-Gly-Pro-Tyr(O-acryloyl)-OMe] gave a ring closure, isolated yield (from C=CC(=O)Oc1ccc(C[C@H](NC(=O)[C@@H]2CCCN2C(=O)CNC(=O)[C@@H](NS(=O)(=O)Cc2ccccc2)C(C)(C)C)C(=O)OC)cc1, 24-membered ring) of 72%.

`COC(=O)[C@@H]1COC(=O)C=Cc2ccccc2S(=O)(=O)N[C@@H](C(C)(C)C)C(=O)NCC(=O)N2CCC[C@H]2C(=O)N1` [PhSO2-tLeu-Gly-Pro-Ser(O-acryloyl)-OMe] gave a ring closure, isolated yield (from C=CC(=O)OC[C@H](NC(=O)[C@@H]1CCCN1C(=O)CNC(=O)[C@@H](NS(=O)(=O)c1ccccc1)C(C)(C)C)C(=O)OC, 19-membered ring) of 67%.

`COC(=O)[C@@H]1COC(=O)C=Cc2ccccc2CS(=O)(=O)N[C@@H](C(C)(C)C)C(=O)NCC(=O)NCC(=O)N1` [PhCH2SO2-tLeu-Gly-Gly-Ser(O-acryloyl)-OMe] gave a ring closure, isolated yield (from C=CC(=O)OC[C@H](NC(=O)CNC(=O)CNC(=O)[C@@H](NS(=O)(=O)Cc1ccccc1)C(C)(C)C)C(=O)OC, 20-membered ring) of 45%.

In the case of `COC(=O)[C@@H]1COC(=O)C=Cc2ccccc2CS(=O)(=O)N[C@@H](C(C)(C)C)C(=O)NCC(=O)N1` [PhCH2SO2-tLeu-Gly-Ser(O-acryloyl)-OMe], the ring closure, isolated yield (from C=CC(=O)OC[C@H](NC(=O)CNC(=O)[C@@H](NS(=O)(=O)Cc1ccccc1)C(C)(C)C)C(=O)OC, 17-membered ring) is reported as 58%.

`COC(=O)[C@@H]1COC(=O)CCC=Cc2ccccc2CS(=O)(=O)N[C@@H](C(C)(C)C)C(=O)NCC(=O)N1` [PhCH2SO2-tLeu-Gly-Ser(O-pent-4-enoyl)-OMe] gave a ring closure, isolated yield (from C=CCCC(=O)OC[C@H](NC(=O)CNC(=O)[C@@H](NS(=O)(=O)Cc1ccccc1)C(C)(C)C)C(=O)OC, 19-membered ring) of 53%.

`COC(=O)[C@@H]1COC(=O)C=Cc2ccsc2S(=O)(=O)N[C@@H](COC(C)(C)C)C(=O)NCC(=O)N2CCC[C@H]2C(=O)N1` [(thiophene-2-SO2)-Ser(tBu)-Gly-Pro-Ser(O-acryloyl)-OMe] showed a ring closure, isolated yield (from C=CC(=O)OC[C@H](NC(=O)[C@@H]1CCCN1C(=O)CNC(=O)[C@H](COC(C)(C)C)NS(=O)(=O)c1cccs1)C(=O)OC, 19-membered ring) of 53%.

With `COC(=O)[C@@H]1COC(=O)C=Cc2ccsc2S(=O)(=O)N[C@@H](C(C)(C)C)C(=O)NCC(=O)N2CCC[C@H]2C(=O)N1` [(thiophene-2-SO2)-tLeu-Gly-Pro-Ser(O-acryloyl)-OMe] the ring closure, isolated yield (from C=CC(=O)OC[C@H](NC(=O)[C@@H]1CCCN1C(=O)CNC(=O)[C@@H](NS(=O)(=O)c1cccs1)C(C)(C)C)C(=O)OC, 19-membered ring) was 59%.

Work on `COC(=O)[C@@H]1Cc2ccc(cc2)OCC=Cc2ccccc2S(=O)(=O)N[C@@H](C(C)(C)C)C(=O)NCC(=O)N2CCC[C@H]2C(=O)N1` [PhSO2-tLeu-Gly-Pro-Tyr(O-allyl)-OMe] yielded a ring closure, isolated yield (from C=CCOc1ccc(C[C@H](NC(=O)[C@@H]2CCCN2C(=O)CNC(=O)[C@@H](NS(=O)(=O)c2ccccc2)C(C)(C)C)C(=O)OC)cc1, 23-membered ring) of 61%.

`COC(=O)[C@@H]1COC(=O)C=Cc2ccccc2CS(=O)(=O)N[C@@H](C(C)(C)C)C(=O)NCC(=O)NCC(=O)NCC(=O)N1` [PhCH2SO2-tLeu-Gly-Gly-Gly-Ser(O-acryloyl)-OMe] showed a ring closure, isolated yield (from C=CC(=O)OC[C@H](NC(=O)CNC(=O)CNC(=O)CNC(=O)[C@@H](NS(=O)(=O)Cc1ccccc1)C(C)(C)C)C(=O)OC, 23-membered ring) of 34%.
